Assay results published in PubChem BioAssay (NCI).
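Five compound concentrations were applied to cells in 96-well plates for 48 hours; endpoints were derived by simple linear interpolation of the resulting dose-response curve. GI50 marks 50% less growth. At the TGI there is no net growth.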

Legend:
Assay in all cases: NCI-60 cell line screen, 48 h
[1] = tested on: UACC-62 melanoma
[2] = tested on: U251 CNS
[3] = tested on: EKVX NSCLC
[4] = tested on: UO-31 renal
[5] = tested on: SR leukemia
[6] = tested on: UACC-257 melanoma
[7] = tested on: HOP-92 NSCLC
[8] = tested on: HS 578T breast
[9] = tested on: ACHN renal
[10] = tested on: MCF7 breast
[11] = tested on: KM12 colon
[12] = tested on: SN12C renal
[13] = tested on: SK-OV-3 ovarian
[14] = tested on: NCI/ADR-RES ovarian
[15] = tested on: NCI-H23 lung
[16] = tested on: SK-MEL-2 melanoma
[17] = tested on: HCC-2998 colon
[18] = tested on: A549 NSCLC
[19] = tested on: SF-268 CNS
[20] = tested on: COLO 205 colon
[21] = tested on: LOX IMVI melanoma
[22] = tested on: T-47D breast
[23] = tested on: TK-10 renal
[24] = tested on: RXF 393 renal
[25] = tested on: NCI-H226 lung
[26] = tested on: SNB-19 CNS
[27] = tested on: CAKI-1 renal
[28] = tested on: HCT-15 colon
[29] = tested on: CCRF-CEM leukemia
[30] = tested on: HCT-116 colon
[31] = tested on: HOP-62 NSCLC
[32] = tested on: M14 melanoma
[33] = tested on: HT29 colon
[34] = tested on: MOLT-4 leukemia
[35] = tested on: MDA-MB-231 breast
[36] = tested on: SW-620 colon
[37] = tested on: PC-3 prostate
[38] = tested on: NCI-H522 lung
[39] = tested on: SF-539 CNS
[40] = tested on: OVCAR-4 ovarian
[41] = tested on: DU-145 prostate
[42] = tested on: K-562 leukemia
[43] = tested on: BT-549 breast
[44] = tested on: A498 renal
[45] = tested on: SF-295 CNS
[46] = tested on: MALME-3M melanoma
[47] = tested on: HL-60(TB) leukemia
[48] = tested on: RPMI-8226 leukemia
[49] = tested on: NCI-H460 lung
[50] = tested on: SNB-75 CNS
[51] = tested on: OVCAR-3 ovarian
[52] = tested on: 786-0 renal
[53] = tested on: OVCAR-5 ovarian
[54] = tested on: SK-MEL-5 melanoma
[55] = tested on: MDA-MB-435
[56] = tested on: IGROV1 ovarian
[57] = tested on: SK-MEL-28 melanoma
[58] = tested on: OVCAR-8 ovarian
[59] = tested on: MDA-N

## COc1ccc2nc3ccccc3c(NCc3ccccc3)c2c1
[1]
  GI50: 2.29 µM
  TGI: 6.05 µM
[2]
  GI50: 2.71 µM
  TGI: 8.34 µM
[3]
  GI50: 3.03 µM
  TGI: 11.4 µM
[4]
  GI50: 1.54 µM
  TGI: 5.34 µM
[5]
  GI50: 1.38 µM
  TGI: 4.51 µM
[6]
  GI50: 2.16 µM
  TGI: 4.88 µM
[7]
  GI50: 2.33 µM
  TGI: 7.88 µM
[8]
  GI50: 2.19 µM
  TGI: 5.57 µM
[9]
  GI50: 2.01 µM
  TGI: 5.97 µM
[10]
  GI50: 2.01 µM
  TGI: 4.89 µM
[11]
  GI50: 3.49 µM
  TGI: 12.9 µM
[12]
  GI50: 2.71 µM
  TGI: 10.5 µM
[13]
  GI50: 2.45 µM
  TGI: 9.08 µM
[14]
  GI50: 2.09 µM
  TGI: 6.69 µM
[15]
  GI50: 1.95 µM
  TGI: 5.52 µM
[16]
  GI50: 2.2 µM
  TGI: 4.9 µM
[17]
  GI50: 1.86 µM
  TGI: 3.77 µM
[18]
  GI50: 1.87 µM
  TGI: 4.19 µM
[19]
  GI50: 2.94 µM
  TGI: 9.71 µM
[20]
  GI50: 1.54 µM
  TGI: 3.54 µM
[21]
  GI50: 1.61 µM
  TGI: 3.29 µM
[22]
  GI50: 2.69 µM
  TGI: 8.89 µM
[23]
  GI50: 3.79 µM
  TGI: 13.1 µM
[24]
  GI50: 1.53 µM
  TGI: 3.13 µM
[25]
  GI50: 2.79 µM
  TGI: 8.69 µM
[26]
  GI50: 3.41 µM
  TGI: 13.7 µM
[27]
  GI50: 1.94 µM
  TGI: 6.82 µM
[28]
  GI50: 1.83 µM
  TGI: 4.46 µM
[29]
  GI50: 2.8 µM
  TGI: 11.7 µM
[30]
  GI50: 1.72 µM
  TGI: 5.25 µM
[31]
  GI50: 2.62 µM
  TGI: 9.95 µM
[32]
  GI50: 1.73 µM
  TGI: 3.58 µM
[33]
  GI50: 1.8 µM
  TGI: 6.23 µM
[34]
  GI50: 2.76 µM
  TGI: 11.2 µM
[35]
  GI50: 1.85 µM
  TGI: 4.38 µM
[36]
  GI50: 1.72 µM
  TGI: 4.68 µM
[37]
  GI50: 2.35 µM
  TGI: 7.39 µM
[38]
  GI50: 1.77 µM
  TGI: 4.6 µM
[39]
  GI50: 1.94 µM
  TGI: 3.96 µM
[40]
  GI50: 2.37 µM
  TGI: 7.58 µM
[41]
  GI50: 3.18 µM
  TGI: 10.3 µM
[42]
  GI50: 2.43 µM
  TGI: 11.5 µM
[43]
  GI50: 2.16 µM
  TGI: 5.18 µM
[44]
  GI50: 1.7 µM
  TGI: 3.15 µM
[45]
  GI50: 2.13 µM
  TGI: 5.86 µM
[46]
  GI50: 1.75 µM
  TGI: 3.22 µM
[47]
  GI50: 2.15 µM
  TGI: 4.81 µM
[48]
  GI50: 1.93 µM
  TGI: 4.49 µM
[49]
  GI50: 2.19 µM
  TGI: 4.86 µM
[50]
  GI50: 2.48 µM
  TGI: 10 µM
[51]
  GI50: 2.65 µM
  TGI: 6.89 µM
[52]
  GI50: 1.8 µM
  TGI: 3.38 µM
[53]
  GI50: 2.25 µM
  TGI: 7.35 µM
[54]
  GI50: 1.76 µM
  TGI: 3.17 µM
[55]
  GI50: 1.91 µM
  TGI: 3.93 µM
[56]
  GI50: 2.34 µM
  TGI: 6.66 µM
[57]
  GI50: 1.75 µM
  TGI: 3.57 µM
[58]
  GI50: 2.76 µM
  TGI: 9.32 µM

## O=c1c2ccccc2nc(N/N=C/c2ccc(Cl)cc2)n1-c1ccccc1
[1]
  TGI: > 100 µM
[2]
  TGI: > 100 µM
[3]
  TGI: > 100 µM
[4]
  TGI: 88 µM
[5]
  TGI: > 100 µM
[6]
  TGI: > 100 µM
[7]
  TGI: > 100 µM
[9]
  TGI: > 100 µM
[10]
  TGI: > 100 µM
[12]
  TGI: > 100 µM
[13]
  TGI: > 100 µM
[14]
  TGI: > 100 µM
[15]
  TGI: > 100 µM
[16]
  TGI: 77.2 µM
[17]
  TGI: > 100 µM
[18]
  TGI: > 100 µM
[19]
  TGI: > 100 µM
[20]
  TGI: > 100 µM
[21]
  TGI: > 100 µM
[22]
  TGI: > 100 µM
[23]
  TGI: > 100 µM
[24]
  TGI: > 100 µM
[25]
  TGI: > 100 µM
[26]
  TGI: > 100 µM
[27]
  TGI: > 100 µM
[28]
  TGI: > 100 µM
[29]
  TGI: > 100 µM
[30]
  TGI: > 100 µM
[31]
  TGI: > 100 µM
[32]
  TGI: > 100 µM
[33]
  TGI: > 100 µM
[34]
  TGI: > 100 µM
[35]
  TGI: > 100 µM
[36]
  TGI: > 100 µM
[37]
  TGI: > 100 µM
[38]
  TGI: > 100 µM
[39]
  TGI: > 100 µM
[40]
  TGI: > 100 µM
[41]
  TGI: > 100 µM
[42]
  TGI: > 100 µM
[44]
  TGI: > 100 µM
[45]
  TGI: > 100 µM
[46]
  TGI: > 100 µM
[59]
  TGI: > 100 µM
[47]
  TGI: > 100 µM
[49]
  TGI: > 100 µM
[51]
  TGI: > 100 µM
[52]
  TGI: > 100 µM
[53]
  TGI: > 100 µM
[54]
  TGI: > 100 µM
[55]
  TGI: > 100 µM
[56]
  TGI: > 100 µM
[57]
  TGI: > 100 µM
[58]
  TGI: > 100 µM
